Results taken from patent US20060025328A1, “Compositions suitable for controlled release of the hormone GnRH and its analogs” (priority 1997, published 2006).

System: LH
Assay: LH concentrations in synchronized dairy heifers, Example 6
Assay type: in vivo
Conditions: GnRH (100 μg) positive control
Description: Experimental formulations were prepared by weighing and mixing SAIB, solvent and deslorelin acetate (DA) to give a final concentration of 25 μg/ml. The SAIB: diluting solvent composition was:SAIB/propylene carbonate 70:30 w/w). Experimental DA Treatments were sterilized using gamma radiation. 30 healthy cyclic dairy heifers weighing about 750-800 lbs (340-364 kg) were used. This study was designed as a parallel group design. All heifers were synchronized using pretreatment with 100 μg GnRH (Cystorellin, Merial, Ltd., Islin, NJ) on day -7 followed by 25 mg PGF2α (Lutalyse Pharmacia-Upjohn Co. Kalamazoo, Mich.) treatment one week later. Forty eight hours after PGF2α treatment heifers received saline (negative controls), Cystorellin ([…]; positive controls) or Deslorelin-SABER (DA-slow delivery preparation; at 12.5, 25, 50 or 100 μg intra-muscular). Blood samples were collected by veni-puncture through shaved and aseptic-swabbed sites at -48, 0, 0.5, 1, 2, 4, 6, 12, 18, 24, 36, and 48 hours after treatment for LH analysis. […] were randomly assigned to one of 6 blinded treatment groups (n=5/group) to avoid interpretation bias.

GnRH: GnRH (Cystorellin, Merial, Ltd.), positive control (QHWSYGLRPG; Gonadoliberin-1; UniProt P01148 24-33, looked up)
LH concentration at peak (average): 22.3 ng/mL | time of peak LH post-treatment: 1 h
